Counter-ions that a name gives are not always drawn.
What was measured:
Format in all cases: biochemical
[1] = target: T1, c-Met kinase (Homo sapiens, UniProt P08581); experiment: c-Met kinase assay (33P incorporation into Poly(Glu-Tyr)); details: 500 nM test compound
T1 construct: recombinant N-terminal 6×His-tagged c-Met kinase domain construct expressed from baculovirus; 6xHis (N); made in house
Procedure, shortened: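 Recombinant N-terminal 6×His-tagged c-Met kinase domain (baculovirus-expressed, 5 ng) acted on Poly(Glu-Tyr) 4:1 with 100 μM ATP plus [33P]-γ-ATP in MOPS pH 7.0 buffer, 30 min at 30° C. Compound was at 500 nM. Filter-retained radioactivity was compared with the DMSO control to give percent inhibition.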

[2] = target: T2, Aurora A kinase (Homo sapiens, UniProt O14965); experiment: Aurora A kinase assay ([γ-33P]ATP, CHOCKtide substrate); details: for inhibition at 1 µM: 1.0 μM test compound
T2 construct: purchased Upstate
T2 sequence (O14965 1-403): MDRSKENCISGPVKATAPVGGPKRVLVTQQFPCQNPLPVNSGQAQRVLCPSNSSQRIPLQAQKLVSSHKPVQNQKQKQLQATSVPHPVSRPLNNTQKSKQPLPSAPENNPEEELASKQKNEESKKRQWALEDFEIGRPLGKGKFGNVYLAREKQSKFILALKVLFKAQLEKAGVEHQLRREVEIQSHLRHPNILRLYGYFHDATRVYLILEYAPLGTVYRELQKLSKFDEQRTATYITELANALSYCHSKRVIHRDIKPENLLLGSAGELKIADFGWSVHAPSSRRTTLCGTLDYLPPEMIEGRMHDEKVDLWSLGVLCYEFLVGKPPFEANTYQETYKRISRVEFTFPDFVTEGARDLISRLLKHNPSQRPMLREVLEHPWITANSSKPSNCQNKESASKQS
Procedure, shortened: (§1)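 Recombinant Aurora A (1 ng) or Aurora B (2.5 ng) incubated with test compound, CHOCKtide (1 μg) and [γ-33P]ATP/ATP at 10 μM (Aurora A) or 40 μM (Aurora B), 30 min at 33 °C. Stopped with phosphoric acid; filter-bound 33P counted; IC50 = half-maximal inhibition.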

[3] = target: T3, Aurora B kinase (Homo sapiens, UniProt Q96GD4); experiment: Aurora B kinase assay ([γ-33P]ATP, CHOCKtide substrate); details: for inhibition at 1 µM: 1.0 μM test compound
T3 construct: purchased Cell signaling
T3 sequence (Q96GD4 whole entry): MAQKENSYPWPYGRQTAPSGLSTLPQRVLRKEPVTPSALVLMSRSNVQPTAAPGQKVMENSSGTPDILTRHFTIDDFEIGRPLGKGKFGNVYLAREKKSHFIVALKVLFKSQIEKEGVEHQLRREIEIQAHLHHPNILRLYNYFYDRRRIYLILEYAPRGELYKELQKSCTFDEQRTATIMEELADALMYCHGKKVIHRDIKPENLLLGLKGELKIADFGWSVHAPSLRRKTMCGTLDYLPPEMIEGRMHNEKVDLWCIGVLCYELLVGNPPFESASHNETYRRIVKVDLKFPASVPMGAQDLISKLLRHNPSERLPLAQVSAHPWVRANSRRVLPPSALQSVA
Procedure, shortened: as §1

T1 sequence (P08581 1078-1345 limits assumed): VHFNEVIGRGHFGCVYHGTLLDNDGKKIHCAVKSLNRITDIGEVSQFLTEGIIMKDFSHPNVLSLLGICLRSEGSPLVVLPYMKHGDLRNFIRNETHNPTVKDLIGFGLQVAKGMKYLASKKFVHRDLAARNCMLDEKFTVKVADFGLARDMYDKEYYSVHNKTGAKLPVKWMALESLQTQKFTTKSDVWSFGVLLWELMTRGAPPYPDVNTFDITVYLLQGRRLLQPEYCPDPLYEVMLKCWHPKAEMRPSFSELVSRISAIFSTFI

SMILES	inhibition at 0.5 µM [1] [%]	inhibition at 1 µM [2] [%]	inhibition at 1 µM [3] [%]	IC50 [2] [µM]	IC50 [3] [µM]
CCOC(=O)CCc1c(/C=C2\C(=O)Nc3ccc(-c4cc5ccccc5s4)cc32)[nH]c2c1C(=O)CCC2 [DCB-70069, (Z)-5-(benzo[b]thiophen-2-yl)-3-((3-(3-ethoxy-3-oxopropyl)-4-oxo-4,5,6,7-tetrahydro-1H-indol-2-yl)methylene)indolin-2-one]	-38	16.5	-2.6		
O=C(O)CCc1c(/C=C2\C(=O)Nc3cc(-c4ccc(O)cc4)ccc32)[nH]c2c1C(=O)CCC2 [DCB-70075, (Z)-6-(4-hydroxyphenyl)-3-((3-carboxyethyl-4-oxo-4,5,6,7-tetrahydro-1H-indol-2-yl)methylene)indolin-2-one]	21.8	92.4	55.8	0.0863	0.456
CCOC(=O)CCc1c(C=C2C(=S)Nc3cc(Br)ccc32)[nH]c2c1C(=O)CCC2 [DCB-70085, 6-bromo-3-((3-(3-ethoxy-3-oxopropyl)-4-oxo-4,5,6,7-tetrahydro-1H-indol-2-yl)methylene)indolin-2-thione]	25.1	11.2	10.7		
CCOC(=O)CCc1c(/C=C2\C(=O)Nc3cc(-c4cc(F)cc(F)c4)ccc32)[nH]c2c1C(=O)CCC2 [DCB-70100, (Z)-6-(3,5-difluorophenyl)-3-((3-(3-ethoxy-3-oxopropyl)-4-oxo-4,5,6,7-tetrahydro-1H-indol-2-yl)methylene)indolin-2-one]	13.1	9.9	13.2		
CCOC(=O)CCc1c(/C=C2\C(=O)Nc3ccc(NS(=O)(=O)c4ccccc4)cc32)[nH]c2c1C(=O)CCCC2 [DCB-70146, (Z)-ethyl 3-(4-oxo-2-((2-oxo-5-(phenylsulfonamido)indolin-3-ylidene)methyl)-1,4,5,6,7,8-hexahydrocyclohepta[b]pyrrol-3-yl)propanoate]	20.9	81.3	75.1	0.0863	0.439
CCOC(=O)CCc1c(/C=C2\C(=O)Nc3cc(F)ccc32)[nH]c2c1C(=O)CCC2 [DCB-70122, (Z)-6-fluoro-3-((3-(3-ethoxy-3-oxopropyl)-4-oxo-4,5,6,7-tetrahydro-1H-indol-2-yl)methylene)indolin-2-one]	19.1	34.1	8.3		
CCOC(=O)CCc1c(/C=C2\C(=O)Nc3cc(-c4ccc(O)c(O)c4)ccc32)[nH]c2c1C(=O)CCC2 [DCB-70077, (Z)-6-(3,4-dihydroxyphenyl)-3-((3-(3-ethoxy-3-oxopropyl)-4-oxo-4,5,6,7-tetrahydro-1H-indol-2-yl)methylene)indolin-2-one]	4.1	57	47.5		
CCOC(=O)CCc1c(/C=C2\C(=O)Nc3ccc(NC(=O)Nc4ccc(OC)cc4)cc32)[nH]c2c1C(=O)CCC2 [DCB-70092, (Z)-5-(3-(4-methoxyphenyl)ureido)-3-((3-(3-ethoxy-3-oxopropyl)-4-oxo-4,5,6,7-tetrahydro-1H-indol-2-yl)methylene)indolin-2-one]	18.6	9.4	9.9		
COc1cc(-c2ccc3c(c2)NC(=O)/C3=C\c2[nH]c3c(c2CCC(=O)O)C(=O)CCC3)ccc1O [DCB-70082, (Z)-6-(4-hydroxy-3-methoxyphenyl)-3-((3-carboxyethyl-4-oxo-4,5,6,7-tetrahydro-1H-indol-2-yl)methylene)indolin-2-one]	27.3	81.7	47.1	0.224	2.25
CN1CCN(S(=O)(=O)c2ccc3c(c2)/C(=C/c2[nH]c4c(c2CCC(=O)O)C(=O)CCC4)C(=O)N3)CC1 [DCB-70107, (Z)-5-(4-methylpiperazin-1-ylsunfonyl)-3-((3-carboxyethyl-4-oxo-4,5,6,7-tetrahydro-1H-indol-2-yl)methylene)indolin-2-one hydrochloride]	59.6	36	23.7		
COc1cc(-c2ccc3c(c2)/C(=C/c2[nH]c4c(c2CCC(=O)O)C(=O)CCC4)C(=O)N3)ccc1O [DCB-70059, (Z)-5-(4-hydroxyl-3-methoxyphenyl)-3-((3-carboxyethyl-4-oxo-4,5,6,7-tetrahydro-1H-indol-2-yl)methylene)indolin-2-one]	16.3	76.1	12.4	0.357	
CCOC(=O)CCc1c(/C=C2\C(=O)Nc3ccc(NC(=O)Nc4ccc(C)cc4)cc32)[nH]c2c1C(=O)CCC2 [DCB-70091, (Z)-5-(3-p-tolylureido)-3-((3-(3-ethoxy-3-oxopropyl)-4-oxo-4,5,6,7-tetrahydro-1H-indol-2-yl)methylene)indolin-2-one]	-0.5	7.6	10.8		
CCOC(=O)CCc1c(/C=C2\C(=O)Nc3cc(Br)ccc32)[nH]c2c1C(=O)CCC2 [DCB-70130, (Z)-ethyl 3-(2-((6-bromo-2-oxoindolin-3-ylidene)methyl)-4-oxo-4,5,6,7-tetrahydro-1H-indol-3-yl)propanoate]	4.2	22.7	12.2		
Cc1ccc(NC(=O)Nc2ccc3c(c2)/C(=C/c2[nH]c4c(c2CCC(=O)O)C(=O)CCC4)C(=O)N3)cc1 [DCB-70093, (Z)-5-(3-p-tolylureido)-3-((3-carboxyethyl-4-oxo-4,5,6,7-tetrahydro-1H-indol-2-yl)methylene)indolin-2-one]	28.2	70.5	14.7		
CCOC(=O)CCc1c(C=C2C(=S)Nc3ccccc32)[nH]c2c1C(=O)CCC2 [DCB-70083, 3-((3-(3-ethoxy-3-oxopropyl)-4-oxo-4,5,6,7-tetrahydro-1H-indol-2-yl)methylene)indolin-2-thione]	29.8	13.2	12.8		
O=C(O)CCc1c(/C=C2\C(=O)Nc3ccc(S(=O)(=O)N4CCc5ccccc54)cc32)[nH]c2c1C(=O)CCC2 [DCB-70106, (Z)-5-(indolin-1-ylsulfonyl)-3-((3-carboxyethyl-4-oxo-4,5,6,7-tetrahydro-1H-indol-2-yl)methylene)indolin-2-one]	59.6	99	70.6	0.0081	0.291
CCOC(=O)CCc1c(/C=C2\C(=O)Nc3ccc(-c4ccc(OC)c(OC)c4)cc32)[nH]c2c1C(=O)CCC2 [DCB-70067, (Z)-5-(3,4-dimethoxyphenyl)-3-((3-(3-ethoxy-3-oxopropyl)-4-oxo-4,5,6,7-tetrahydro-1H-indol-2-yl)methylene)indolin-2-one]	17	5.2	-1.3		
O=C(O)CCc1c(C=C2C(=S)Nc3cc(Br)ccc32)[nH]c2c1C(=O)CCC2 [DCB-70086, 6-bromo-3-((3-carboxyethyl-4-oxo-4,5,6,7-tetrahydro-1H-indol-2-yl)methylene)indolin-2-thione]	21.6	5.8	17.8		
CCOC(=O)CCc1c(/C=C2\C(=O)Nc3ccc(NC(=O)Nc4ccc(Br)cc4)cc32)[nH]c2c1C(=O)CCC2 [DCB-70135, (Z)-ethyl 3-(2-((5-(3-(4-bromophenyl)ureido)-2-oxoindolin-3-ylidene)methyl)-4-oxo-4,5,6,7-tetrahydro-1H-indol-3-yl)propanoate]	-3.7	7.4	-6.6		
COc1ccc(NC(=O)Nc2ccc3c(c2)/C(=C/c2[nH]c4c(c2CCC(=O)O)C(=O)CCC4)C(=O)N3)cc1 [DCB-70094, (Z)-5-(3-(4-methoxyphenyl)ureido)-3-((3-carboxyethyl-4-oxo-4,5,6,7-tetrahydro-1H-indol-2-yl)methylene)indolin-2-one]	18.9	75.2	15.5		
O=C(O)CCc1c(/C=C2\C(=O)Nc3ccc(S(=O)(=O)N4CCOCC4)cc32)[nH]c2c1C(=O)CCC2 [DCB-70088, (Z)-5-morpholinosulfonyl-3-((3-carboxyethyl-4-oxo-4,5,6,7-tetrahydro-1H-indol-2-yl)methylene)indolin-2-one]	25.3	99.3	48.8	0.0288	1.87
CNS(=O)(=O)c1ccc2c(c1)/C(=C/c1[nH]c3c(c1CCC(=O)O)C(=O)CCC3)C(=O)N2 [DCB-70065, (Z)-5-(N-methylsulfamoyl)-3-((3-carboxyethyl-4-oxo-4,5,6,7-tetrahydro-1H-indol-2-yl)methylene)indolin-2-one]	29.1	97.3	25.6	0.0308	
